system: DU-145; assay: Antiproliferative activity against human DU145 cells assessed as growth inhibition treated after 12 hrs hypoxic condition and incubated additional 24 hrs under hypoxic condition by MTT assay; assay type: functional, cell-based

SMILES | inhibition
C=C1CCC[C@H]2[C@](C)(Cc3cc(C(=O)OC)cc(O)c3O)[C@@H](C)CC[C@]12C | Dose-dependent effect
C=C1CCC[C@@H]2[C@@](C)(Cc3cc(C(=O)OC)ccc3O)[C@H](C)CC[C@@]12C | Dose-dependent effect
C=C1CCC[C@H]2[C@](C)(Cc3cc(C(=O)OC)ccc3O)[C@@H](C)CC[C@]12C | Dose-dependent effect
C=C1CCC[C@@H]2[C@@](C)(Cc3cc(C(=O)OC)cc(O)c3O)[C@H](C)CC[C@@]12C | Dose-dependent effect
